Laboratory results reported in PubChem BioAssay AID1996.
Converted amounts (≈) assume the structure as drawn. Residues, ends and D or L forms follow the SMILES beside them.

Conditions: buffer; pH 7.4; 200.0 µM

SMILES | solubility kinetic [µg/mL]
C=C1N(C)c2cc([N+](=O)[O-])c(N)cc2C1(C)C | > 35
CN(CC(=O)Nc1cccc(C(F)(F)F)c1)Cc1ccccc1 | 20.8 (≈ 64.5 µM)
Nc1ccccc1SCc1ccccc1Cl | 3.3 (≈ 13.2 µM)
COc1ccccc1Nc1nc(Cl)c(C=O)s1 | 12.1 (≈ 45 µM)
Cc1ccc(S(=O)(=O)NCC(=O)OCC(=O)NC2CCCCC2)cc1 | > 55.3
CC(=O)c1cccc(NC(=O)N2CCCCCC2)c1 | > 39.1
CC1=CC(C)(C)NC(=O)N1c1ccc(C)cc1 | > 34.5
COc1ccc(C=O)cc1OC(=O)N1CCOCC1 | > 39.8
O=C(/C=C/c1cccc([N+](=O)[O-])c1)OCC1CCCO1 (centres undefined) | 34.4 (≈ 124 µM)
O=C(COc1ccc(Cl)cc1)NCCCNC(=O)c1cnccn1 | > 52.3
CC(C)(C)S(=O)(=O)c1cnc(-c2ccccn2)nc1N | 34.1 (≈ 117 µM)
FC(F)(F)c1ccccc1N1CC1c1ccncc1 (centres undefined) | 31 (≈ 117 µM)
O=C(O)CCN=CC1=C(O)CC(c2ccccc2)CC1=O (centres undefined) | > 43.1
Nc1nc2ccccc2n1CCOc1ccc(F)cc1 | > 40.7
CCc1ccc(NC(=O)Cn2cnc([N+](=O)[O-])c2)cc1 | 23 (≈ 83.9 µM)
NC(=O)COC(=O)CCSc1ccc(Cl)cc1 | 30.2 (≈ 110 µM)
COc1ccc(OCC(=O)Nc2ccccc2N2CCN(C)CC2)cc1 | 49.5 (≈ 139 µM)
CCC1(c2ccccc2)NC(=O)N(CC(=O)N2CCc3ccccc32)C1=O (centres undefined) | 6.8 (≈ 18.7 µM)
O=C(CN1c2cccc3cccc(c23)S1(=O)=O)Nc1c(F)c(F)c(F)c(F)c1F | 1.3 (≈ 3.03 µM)
COc1cc(OC)cc(C(=O)NC(=S)N2CCCCCC2)c1 | 43.6 (≈ 135 µM)
COC(=O)c1ccc(CNC(=O)COC(=O)c2cc(Cl)ccc2O)cc1 | 7.1 (≈ 18.8 µM)
Cc1[nH]c(C)c(C(=O)/C=C/c2ccc([N+](=O)[O-])cc2)c1C | 2.9 (≈ 10.2 µM)
Cc1ccc2c(CN3CCOCC3)cc(=O)oc2c1C | > 41
COCCNC(=O)C(OC(=O)c1ccco1)c1ccccc1F (centres undefined) | > 48.2
Cc1ccccc1OCc1ccc(C(=O)N2CCOCC2)o1 | 41.2 (≈ 137 µM)
Cc1c(C(=O)O)[nH]c2c1C(=O)CC(c1ccc(C(C)(C)C)cc1)C2 (centres undefined) | > 48.8
Cc1ccc(NC(=O)CN(C)C(=O)CSc2ccccc2F)cc1 | 5.2 (≈ 15 µM)

SMILES | solubility kinetic [µg/mL]
Cc1cccc(-c2noc(CCCC(=O)NC3CCCC3)n2)c1 | 42.2 (≈ 135 µM)
Cc1ccc(OC(=O)c2ccc(Cl)c([N+](=O)[O-])c2)cn1 | 42.8 (≈ 146 µM)
COCc1cc(SC2CCCCC2)nc(C)n1 | 11.7 (≈ 46.4 µM)
O=C(Nc1ccno1)Nc1ccc(Cl)cc1Cl | 5.4 (≈ 19.8 µM)
O=C(Oc1ccc(C(=S)N2CCOCC2)cc1)c1cccc(Cl)c1 | < 0.8
O=c1ccnc(SCCc2ccccc2)[nH]1 | > 34.8
Cn1cnc2c(N/N=C/c3cccs3)ncnc21 | > 38.7
Cn1cccc1/C=N/NC(=O)Cc1cccs1 | > 37.1
CCCCc1ccc(NC(=O)C2CCCC2)cc1 | 1.9 (≈ 7.74 µM)
CN(C)c1ccc(NC(=O)c2cnsn2)cc1 | 30.2 (≈ 122 µM)
CCOc1ccccc1N1CN(Cc2ccccc2)CNC1=S | > 49.1
Cc1cccc(NC(=O)C2COc3ccccc3O2)n1 (centres undefined) | 35.9 (≈ 133 µM)
CN1CCN(c2nc(-c3ccc(Cl)cc3)cc(=O)[nH]2)CC1 | 39.8 (≈ 131 µM)
COc1ccc(C(=O)NC(=O)COC(=O)c2ccc(C)o2)cc1 | 7 (≈ 22.1 µM)
CC(C)CN1CCN(CC#Cc2ccccc2)CC1CCO (centres undefined) | 43.6 (≈ 145 µM)
O=C(CCCc1c[nH]c2ccccc12)NCc1ccccc1F | 34.5 (≈ 111 µM)
CCC(=O)Nc1nc2ccc([N+](=O)[O-])cc2s1 | 0.9 (≈ 3.58 µM)
COc1cc2c(cc1OC)C(=S)NC1(CCCC1)C2 | 5.5 (≈ 19.8 µM)
CC(C)=C1SC(N2CCN(c3ccc(C)c(Cl)c3)CC2)=NC1=O | 1.9 (≈ 5.43 µM)
COC(=O)c1ccccc1Oc1cnc2ccccc2n1 | > 42
CCOC(=O)C(=O)c1c(-c2ccc(C)cc2)nc2ccccn12 | > 46.3
O=C(NC(=S)N1CCOCC1)c1ccc(F)cc1 | > 40.2
O=C1CSC(c2cccnc2)N1c1ccc(Cl)cc1 (centres undefined) | > 43.6
CCOC(=O)n1c(=O)n(Cc2ccc(OC)cc2)c2ccccc21 | 29.5 (≈ 90.4 µM)
Cc1cc(Cl)ccc1NC(=S)NC1CCCC1 | 18.1 (≈ 67.3 µM)
CN(C)S(=O)(=O)c1cc(NC(=O)COC(=O)CC2CC3CCC2C3)ccc1Cl (centres undefined) | 13.7 (≈ 31.9 µM)

Further lines, results first:

solubility kinetic [µg/mL] | SMILES
> 57.4 | Cc1ccc(NC(=O)COC(=O)C2CC2)cc1S(=O)(=O)N1CCOCC1
34.8 (≈ 130 µM) | CC1(C)Cc2cccc(C(=O)Nc3ccncc3)c2O1
> 45.8 | Cc1ccccc1S(=O)(=O)Nc1ncnc2sccc12
> 51.5 | O=C(N/N=C\c1ccc(O)c([N+](=O)[O-])c1)C1COc2ccccc2O1 (centres undefined)
3.8 (≈ 10.5 µM) | CC1(c2ccccc2)NC(=O)N(CC(=O)Nc2ccc3c(c2)CCC3)C1=O (centres undefined)
7.7 (≈ 22.6 µM) | O=C(CCCn1c(=O)[nH]c2ccccc2c1=O)Nc1ccc(F)cc1
1.4 (≈ 4.21 µM) | COc1ccc(/C=C(\C)c2nc(C)c(-c3ccccc3)c(=O)[nH]2)cc1
> 31.8 | Cc1c(-c2nc3ccccc3[nH]2)cnn1C
15.4 (≈ 43.8 µM) | NS(=O)(=O)c1ccc(NC(=O)c2cc(Cl)sc2Cl)cc1
34.7 (≈ 131 µM) | O=C(NCCc1c[nH]c2ccccc12)c1ccccc1
1.2 (≈ 3.9 µM) | O=C(NC(=S)Nc1cccc2cnccc12)c1ccccc1
> 41.1 | Cn1c(CN2CCCCC2)nc2cc([N+](=O)[O-])ccc21
0.2 (≈ 0.617 µM) | O=[N+]([O-])c1ccc2ncnc(Nc3ccc4c(c3)OCCO4)c2c1
0.4 (≈ 1.26 µM) | Cc1cc(Oc2ccc([N+](=O)[O-])cc2)nc(N2CCOCC2)n1
> 52.3 | CC(Nc1cccc(C(=O)NC2CC2)c1)c1nnc(-c2ccccc2)o1 (centres undefined)
33 (≈ 87 µM) | CCOCCCn1c(=NC(C)=O)c(C#N)cc2c(=O)n3cccc(C)c3nc21
< 0.4 | COc1ccc(C2CC(C)(c3ccc(OC)cc3)Nc3ccccc3N2)cc1 (centres undefined)
1.3 (≈ 4.66 µM) | O=C(NCc1ccc(Cl)cc1)Nc1ccc(F)cc1
> 44.1 | O=C(Cc1cccc(C(F)(F)F)c1)NCc1cccnc1
> 44.1 | COC(=O)[C@H](Cc1ccccc1)NC(=O)[C@@H](N)CC(=O)O (H-Asp-Phe-OMe)
> 52.5 | COc1ccc(C(=O)Nc2cc(C(=O)O)cc(C(=O)O)c2)cc1Cl
< 0.4 | COc1ccc(C2=NOC(COc3ccc([N+](=O)[O-])cc3)C2)cc1 (centres undefined)

solubility kinetic [µg/mL] | SMILES
38.8 (≈ 141 µM) | O=C(O)/C=C/C(=O)Nc1ccc(OC(F)(F)F)cc1
> 44.6 | O=C(Nc1ccc(-c2n[nH]c(=S)o2)cc1)c1ccccc1
> 57.4 | CC(OC(=O)C1CC1)C(=O)Nc1cccc(S(=O)(=O)N2CCOCC2)c1 (centres undefined)
> 46.9 | COCCOC(=O)C1=C(C)NC(=S)NC1c1cccs1 (centres undefined)
> 57.7 | N#Cc1cccc(C(=O)Nc2ccc(S(=O)(=O)Nc3nccs3)cc2)c1
> 44.6 | O=C(NCCCc1nc2ccccc2[nH]1)c1ccc(F)cc1
29.3 (≈ 102 µM) | CCOc1ccc(CN(C)C(=O)c2ccc(=O)[nH]c2)cc1
3.7 (≈ 9.01 µM) | CCN(c1ccccc1)S(=O)(=O)c1ccc(C(=O)Nc2ccccc2OC)cc1
2.2 (≈ 6.31 µM) | CSc1nc2ccc(NC(=O)COc3ccccc3F)cc2s1
3.7 (≈ 10.9 µM) | Cc1onc(-c2ccccc2)c1-c1nc2cc(Cl)ccc2c(=O)o1
> 43.8 | Cc1cc(OC(=O)c2cccc(F)c2)c([N+](=O)[O-])c(=O)[nH]1
> 49.2 | O=C(OCC(=O)N1CCOCC1)c1ccccc1Br
1.2 (≈ 3.96 µM) | CCC1(CC)Cc2ccccc2-c2nc(CCl)[nH]c(=O)c21
43.8 (≈ 132 µM) | OC1CCC(NC(=S)Nc2ccc(SC(F)F)cc2)CC1 (centres undefined)
> 45.8 | CC(=O)Nc1ccc(NC(=S)NC(=O)C2CCCC2)cc1
< 0.7 | O=C(Nc1cccc(Cl)c1)c1cc(F)cc2c1OCOC2
> 48.5 | COc1ccccc1-c1nc(C#N)c(NCCCn2ccnc2)o1
36.5 (≈ 129 µM) | O=C(CSc1cccs1)Nc1ccc(Cl)cc1
41.3 (≈ 128 µM) | CC1CC(C)CN(C(=O)COC(=O)Cc2ccc(Cl)cc2)C1 (centres undefined)
> 48.1 | O=C(O)C1CCN(S(=O)(=O)c2cccc3cccnc23)CC1
> 44.6 | Cc1ccc2c(c1)C(=O)OC1(O)C3C4C=CC(C4)C3C(=O)N21 (centres undefined)
0.3 (≈ 1.04 µM) | Cc1ccc(Nc2nc(C)nc3c2oc2ccccc23)cc1

solubility kinetic [µg/mL] | SMILES
> 37.3 | O=C(NCc1ccccc1)c1ccc[nH+]c1.[Cl-]
36.8 | Cc1c2c(nc3ccccc13)CC(C)(C)CC2=O.Cl
> 32.6 | Cc1ccc(S(=O)(=O)NC2CC2)s1
3.2 (≈ 12.1 µM) | Cc1ccc(NC(=O)Cc2c[nH]c3ccccc23)cc1
> 48.4 | Cc1ccc(S(=O)(=O)N2CCCCC2)cc1NC(=O)C1CC1
4.8 (≈ 15.3 µM) | CCC(C)NC(=O)COc1ccc(OCc2ccccc2)cc1 (centres undefined)
< 0.6 | COc1ccc(N=C(C)c2sc3ccccc3c2O)cc1
22.5 (≈ 106 µM) | Cc1ccc(OC(=O)c2cccnc2)cc1
0.3 (≈ 1.05 µM) | CCN1/C(=C2\OC(=S)N(C)C2=O)C=Cc2ccccc21
25.5 (≈ 97.9 µM) | c1ccc(NC(c2ccccc2)c2ccncc2)cc1 (centres undefined)
> 60.7 | O=C1C(CCS(=O)c2ccccc2)C(=O)N(c2ccccc2)N1c1ccccc1 (centres undefined)
48.6 (≈ 150 µM) | COc1ccc(CNC(=O)Cc2c[nH]c3ccccc23)cc1OC
> 50.5 | COc1cc(/C=C/C(=O)OCC(=O)NC(=O)NC(C)C)ccc1O
> 30.6 | CCOC(=O)c1cn2c(C)cccc2n1
38.8 (≈ 148 µM) | CC(CNC(=O)c1ccco1)NC(=O)c1ccco1 (centres undefined)
> 54.1 | O=C(O)c1c2c(nc3ccccc13)/C(=C/c1cccc([N+](=O)[O-])c1)CCC2
44.6 (≈ 144 µM) | CCOc1ncccc1C(=O)OCC(=O)NC(=O)NC(C)C
> 55.2 | OC1(c2ccccc2)Cc2cccc[n+]2C1c1ccccc1.[Br-] (centres undefined)
5.7 (≈ 14.7 µM) | CN(C)S(=O)(=O)c1cccc(NC(=O)c2ccc(N3CCCC3=O)cc2)c1
21.5 | Cl.Nc1nc2nc[nH]c2c(=O)[nH]1
4.2 | CCOc1ccc2nc(N(CCN(C)C)C(=O)c3cc4ccccc4cc3OC)sc2c1.Cl
> 42.6 | Nc1cc2c(cc1[N+](=O)[O-])OCCOCCOCCO2
